Laboratory results from patent US7560475B2, “Phenylacetic acid derivative, process for producing the same, and use” (Ono Pharmaceutical Co., Ltd., priority 2003, dated 2009).

Assays:
human PPAR δ = molecular target: T1, human PPAR δ (Homo sapiens, UniProt Q03181); assay: Luciferase assay using human PPAR δ (Gal4-PPAR chimeric receptor reporter in CV-1 cells); assay type: cell-based; details: relative to 30 μM carbacyclin defined as 1, 42 hours
T1 construct: expressed in transfected cells; host or cells: CV-1 cells
T1 sequence (Q03181 139-441): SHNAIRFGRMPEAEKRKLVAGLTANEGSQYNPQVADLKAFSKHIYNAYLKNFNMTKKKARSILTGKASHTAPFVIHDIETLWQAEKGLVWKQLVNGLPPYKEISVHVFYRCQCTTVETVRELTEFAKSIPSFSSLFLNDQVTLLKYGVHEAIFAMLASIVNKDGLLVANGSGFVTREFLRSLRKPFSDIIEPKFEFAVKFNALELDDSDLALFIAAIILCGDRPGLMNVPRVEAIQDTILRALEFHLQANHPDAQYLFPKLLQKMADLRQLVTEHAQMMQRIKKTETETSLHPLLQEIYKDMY

7-weeks old male mice = assay: Lowering effect of blood cholesterol and blood lipid in mice loaded with high cholesterol diets; assay type: in vivo; details: high cholesterol diet mice, plasma, vehicle administration group defined as 100%
Method: High cholesterol diets (CRF-1 solid pellet mixed of 5.5% peanut oil, 1.5% cholesterol, 0.5% cholic acid, Oriental Bio Service) are loaded to 7-weeks old male mice for six days and then the body weight of food-deprived […] are measured, the following various parameter levels are measured. The measurement items are LDL, HDL, TG level, NEFA, and TC level. Mice are divided into five per group based on TC level and the division was performed without bias in the average of other parameters. From the next day to six days in a row, the suspended solution of the compounds in vehicle (0.5% methylcellulose aqueous solution) are orally compellingly administered once daily and the loading of high cholesterol diets is continued. After the next day of termination of final administration (the 7th day of administration onset), plasma lipid (TG HDL, LDL, NEFA, TC level) is measured.
The relative activity of the compounds of the present invention was calculated under the condition that the value of vehicle administration group was defined as 100%. And then HDL cholesterol elevating effect and LDL cholesterol lowering effect of the compound prepared in Example 33 are shown in Table 2.

[1] = dose 3 mg/kg orally once daily for six days
[2] = dose 10 mg/kg orally once daily for six days
[3] = dose 30 mg/kg orally once daily for six days

**Q.** With `Cc1sc(N2CCC(C(F)(F)F)CC2)nc1CCOc1cccc(CC(=O)O)c1F` [Example 33, [2-fluoro-3-(2-{5-methyl-2-[4-(trifluoromethyl)piperidin-1-yl]-1,3-thiazol-4-yl}ethoxy)phenyl]acetic acid] as the molecule, how does the “Fold increase of transcriptional activation” value (from here on “Fold increase”) (human PPAR δ; final concentration 0.1 μM) read?
**A.** 0.47

**Q.** What about the “Fold increase” value (human PPAR δ; final concentration 0.3 μM) of the same molecule?
**A.** 1.08

**Q.** And the “Fold increase” value (human PPAR δ; final concentration 1.0 μM)?
**A.** 1.23

**Q.** And the “HDL cholesterol elevating effect” value (7-weeks old male mice; [1])?
**A.** 150.0%

**Q.** And the “LDL cholesterol lowering effect” value (7-weeks old male mice; [1])?
**A.** 82.5%

**Q.** And the “HDL cholesterol elevating effect” value (7-weeks old male mice; [2])?
**A.** 162.7%

**Q.** And the “LDL cholesterol lowering effect” value (7-weeks old male mice; [2])?
**A.** 75.7%

**Q.** And the “HDL cholesterol elevating effect” value (7-weeks old male mice; [3])?
**A.** 157.3%

**Q.** What about the “LDL cholesterol lowering effect” value (7-weeks old male mice; [3]) of the same molecule?
**A.** 72.3%
